“And” between values parts separate entries of the source, which are not always exact repeats. Identical values can stand only once. Marks after values point to notes of the source that are not given here.
Tests used:
CYP2D6 [1] = target: T1, CYP2D6 (Homo sapiens, UniProt P10635); test: Study 2; settings: for CL/F: mean ± SD; for Increase of exposure (AUC) by esmethadone: dextromethorphan + esmethadone 75 mg vs dextromethorphan alone; for Cmax: po
CYP3A4 [2] = test: Study 2
Study 1 = type: in vivo, human; settings: single 25-mg oral dose of [14C]-esmethadone
[3] = cited from earlier work
UGT1A9 = UGT1A9 (Homo sapiens, UniProt O60656); test: Inhibition of UGT1A9 in human liver microsomes
UGT1A9, sequence (O60656 26-530): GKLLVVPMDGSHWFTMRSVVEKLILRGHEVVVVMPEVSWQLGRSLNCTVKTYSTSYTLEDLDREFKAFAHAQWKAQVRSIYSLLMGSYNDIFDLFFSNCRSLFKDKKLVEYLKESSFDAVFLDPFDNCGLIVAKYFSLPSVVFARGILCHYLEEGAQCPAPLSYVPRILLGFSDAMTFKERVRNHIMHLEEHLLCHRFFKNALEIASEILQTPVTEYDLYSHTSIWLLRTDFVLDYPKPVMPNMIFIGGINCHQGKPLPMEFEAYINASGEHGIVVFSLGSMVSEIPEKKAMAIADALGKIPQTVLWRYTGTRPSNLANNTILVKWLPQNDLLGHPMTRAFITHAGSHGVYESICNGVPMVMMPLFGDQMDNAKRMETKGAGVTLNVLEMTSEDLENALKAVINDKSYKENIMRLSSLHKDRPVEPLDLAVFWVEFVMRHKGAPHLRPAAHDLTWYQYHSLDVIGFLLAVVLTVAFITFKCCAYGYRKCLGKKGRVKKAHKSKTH

P-glycoprotein (P-gp) = P-glycoprotein (P-gp) (Homo sapiens, UniProt P08183); test: Efflux transporter assay in Caco-2 cells, P-gp inhibition; type: in vitro ADME
CYP2C19 [4] = target: T2, CYP2C19 (Homo sapiens, UniProt P33261); settings: HLM, esmethadone 0.2–200 μM
T2 sequence (P33261 whole entry): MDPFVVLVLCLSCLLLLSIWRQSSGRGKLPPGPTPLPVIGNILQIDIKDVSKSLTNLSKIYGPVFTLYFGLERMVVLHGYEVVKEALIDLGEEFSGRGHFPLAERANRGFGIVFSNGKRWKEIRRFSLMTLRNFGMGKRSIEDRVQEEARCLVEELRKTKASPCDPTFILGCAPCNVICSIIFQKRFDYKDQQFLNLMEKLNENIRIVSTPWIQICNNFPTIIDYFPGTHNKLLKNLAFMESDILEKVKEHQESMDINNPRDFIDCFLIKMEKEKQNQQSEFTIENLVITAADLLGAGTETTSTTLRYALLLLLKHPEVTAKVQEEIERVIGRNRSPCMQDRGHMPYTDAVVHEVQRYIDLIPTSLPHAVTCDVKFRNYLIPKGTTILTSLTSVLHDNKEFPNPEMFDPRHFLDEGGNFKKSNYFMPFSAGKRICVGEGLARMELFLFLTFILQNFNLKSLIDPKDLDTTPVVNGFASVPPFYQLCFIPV

UGT1A4 = UGT1A4 (Homo sapiens, UniProt P22310); test: Inhibition of UGT1A4 in human liver microsomes
UGT1A4, sequence (P22310 29-534): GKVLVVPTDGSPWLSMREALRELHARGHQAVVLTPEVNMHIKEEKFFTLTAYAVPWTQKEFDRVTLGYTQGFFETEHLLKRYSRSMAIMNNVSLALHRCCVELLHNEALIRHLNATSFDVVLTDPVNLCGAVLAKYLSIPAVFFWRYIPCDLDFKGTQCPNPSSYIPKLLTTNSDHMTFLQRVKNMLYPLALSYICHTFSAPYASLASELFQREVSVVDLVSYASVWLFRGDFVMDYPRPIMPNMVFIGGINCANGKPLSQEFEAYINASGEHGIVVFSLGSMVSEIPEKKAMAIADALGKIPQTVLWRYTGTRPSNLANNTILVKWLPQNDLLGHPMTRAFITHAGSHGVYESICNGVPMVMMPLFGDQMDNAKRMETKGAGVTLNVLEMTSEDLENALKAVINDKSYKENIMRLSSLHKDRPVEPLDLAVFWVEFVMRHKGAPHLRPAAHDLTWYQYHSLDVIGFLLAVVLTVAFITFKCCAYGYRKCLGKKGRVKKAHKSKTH

CYP2C9 [5] = target: T3, CYP2C9 (Homo sapiens, UniProt P11712); test: biochemical
T3 sequence (P11712 whole entry): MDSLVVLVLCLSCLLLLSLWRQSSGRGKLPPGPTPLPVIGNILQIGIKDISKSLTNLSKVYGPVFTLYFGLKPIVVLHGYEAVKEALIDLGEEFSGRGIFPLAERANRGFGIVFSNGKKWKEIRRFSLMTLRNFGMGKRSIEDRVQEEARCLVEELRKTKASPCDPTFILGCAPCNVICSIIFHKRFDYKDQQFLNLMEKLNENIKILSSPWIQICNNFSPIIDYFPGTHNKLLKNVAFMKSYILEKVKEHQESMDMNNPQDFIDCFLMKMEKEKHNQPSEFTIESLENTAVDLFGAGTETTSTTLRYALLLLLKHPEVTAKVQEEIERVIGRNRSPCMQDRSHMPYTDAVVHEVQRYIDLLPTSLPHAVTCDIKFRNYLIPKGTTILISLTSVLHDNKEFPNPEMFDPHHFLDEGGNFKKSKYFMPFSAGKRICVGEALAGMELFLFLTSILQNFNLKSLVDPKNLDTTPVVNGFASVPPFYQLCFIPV

UGT1A1 = UGT1A1 (Homo sapiens, UniProt P22309); test: Inhibition of UGT1A1 in human liver microsomes
UGT1A1, sequence (P22309 26-533): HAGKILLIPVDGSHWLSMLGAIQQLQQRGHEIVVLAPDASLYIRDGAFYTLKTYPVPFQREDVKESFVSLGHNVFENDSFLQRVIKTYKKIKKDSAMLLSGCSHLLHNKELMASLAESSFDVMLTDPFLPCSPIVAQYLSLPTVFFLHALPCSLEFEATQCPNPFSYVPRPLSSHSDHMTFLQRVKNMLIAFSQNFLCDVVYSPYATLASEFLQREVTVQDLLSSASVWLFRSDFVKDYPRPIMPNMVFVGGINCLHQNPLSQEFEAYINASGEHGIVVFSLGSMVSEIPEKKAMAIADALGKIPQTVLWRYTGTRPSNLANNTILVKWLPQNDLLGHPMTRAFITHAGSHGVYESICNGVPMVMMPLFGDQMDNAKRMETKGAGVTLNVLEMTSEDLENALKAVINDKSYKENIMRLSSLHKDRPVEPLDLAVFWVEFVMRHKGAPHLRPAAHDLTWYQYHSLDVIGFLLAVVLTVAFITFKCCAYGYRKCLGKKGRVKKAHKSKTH

UGT1A6 = UGT1A6 (Homo sapiens, UniProt P19224); test: Inhibition of UGT1A6 in human liver microsomes; settings: HLM
CYP1A2 [6] = target: CYP1A2 (Homo sapiens, UniProt P05177); settings: HLM, esmethadone 0.2–200 μM
UGT1A3 = UGT1A3 (Homo sapiens, UniProt P35503); test: Inhibition of UGT1A3 in human liver microsomes
[7] = Study 2 treatment-emergent adverse events; settings: healthy participants, alone or in combination with dextromethorphan and midazolam
OCT1 = OCT1 (Homo sapiens, UniProt O15245); test: Uptake transporter assay in transfected HEK293 cells, OCT1 inhibition; type: in vitro ADME
[8] = target: human recombinant UGT2B15 (Homo sapiens, UniProt P54855); test: Inhibition of UGT2B15 in Supersomes
human recombinant UGT2B15, sequence (P54855 24-530): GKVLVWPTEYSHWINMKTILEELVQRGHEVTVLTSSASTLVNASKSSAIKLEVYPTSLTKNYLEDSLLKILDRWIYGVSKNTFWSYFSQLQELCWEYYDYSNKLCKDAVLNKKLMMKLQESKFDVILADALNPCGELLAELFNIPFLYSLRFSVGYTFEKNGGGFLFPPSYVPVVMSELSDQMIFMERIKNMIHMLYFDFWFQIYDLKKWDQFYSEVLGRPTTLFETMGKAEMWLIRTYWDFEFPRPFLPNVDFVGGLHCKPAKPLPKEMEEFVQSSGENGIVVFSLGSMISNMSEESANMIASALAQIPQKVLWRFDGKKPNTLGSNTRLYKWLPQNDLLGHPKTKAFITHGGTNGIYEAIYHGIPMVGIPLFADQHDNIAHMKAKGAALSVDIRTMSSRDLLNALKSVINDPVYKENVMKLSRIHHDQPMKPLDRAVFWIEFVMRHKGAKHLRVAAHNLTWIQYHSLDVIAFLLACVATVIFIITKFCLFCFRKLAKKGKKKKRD

CYP2B6 [9] = test: in vitro; type: in vitro ADME; settings: human
CYP2A6 = CYP2A6 (Homo sapiens, UniProt P11509); test: Direct inhibition of CYP2A6 in human liver microsomes
CYP2A6, sequence (P11509 whole entry): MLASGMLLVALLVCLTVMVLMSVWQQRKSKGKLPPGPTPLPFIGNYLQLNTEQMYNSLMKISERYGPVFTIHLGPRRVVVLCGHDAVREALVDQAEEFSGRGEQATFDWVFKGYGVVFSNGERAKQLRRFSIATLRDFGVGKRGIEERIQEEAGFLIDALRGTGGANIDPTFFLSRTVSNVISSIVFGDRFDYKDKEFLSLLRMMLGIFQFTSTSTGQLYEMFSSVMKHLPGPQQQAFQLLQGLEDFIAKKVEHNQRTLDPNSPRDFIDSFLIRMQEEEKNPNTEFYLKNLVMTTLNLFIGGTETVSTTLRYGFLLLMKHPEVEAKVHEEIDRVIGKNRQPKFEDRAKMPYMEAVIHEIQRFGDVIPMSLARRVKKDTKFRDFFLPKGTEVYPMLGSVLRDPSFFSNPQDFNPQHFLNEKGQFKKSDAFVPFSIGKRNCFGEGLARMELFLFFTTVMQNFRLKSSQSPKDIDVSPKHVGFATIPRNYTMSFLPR

CYP2C8 [10] = target: T4, CYP2C8 (Homo sapiens, UniProt P10632); test: biochemical
CYP2C8 [11] = target: T4, CYP2C8; settings: HLM, esmethadone 0.2–200 μM
CYP2B6 [12] = target: T5, CYP2B6 (Homo sapiens, UniProt P20813); settings: HLM, esmethadone 0.2–200 μM
T5 sequence (P20813 whole entry): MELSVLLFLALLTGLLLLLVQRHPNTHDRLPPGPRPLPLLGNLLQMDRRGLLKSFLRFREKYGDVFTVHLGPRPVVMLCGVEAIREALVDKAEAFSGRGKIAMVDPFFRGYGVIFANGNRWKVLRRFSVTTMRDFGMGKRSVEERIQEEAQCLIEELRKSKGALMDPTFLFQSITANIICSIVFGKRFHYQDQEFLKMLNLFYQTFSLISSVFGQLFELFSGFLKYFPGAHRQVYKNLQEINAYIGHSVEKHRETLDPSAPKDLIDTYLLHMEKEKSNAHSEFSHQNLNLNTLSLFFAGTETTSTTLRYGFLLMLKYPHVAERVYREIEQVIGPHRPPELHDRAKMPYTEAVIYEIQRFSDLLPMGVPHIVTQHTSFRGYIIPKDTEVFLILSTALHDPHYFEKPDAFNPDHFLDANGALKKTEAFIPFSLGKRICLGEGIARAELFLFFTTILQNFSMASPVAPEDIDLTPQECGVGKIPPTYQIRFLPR

CYP2C9 [13] = target: T3, CYP2C9; settings: HLM, esmethadone 0.2–200 μM
CYP2D6 [14] = target: T1, CYP2D6; test: Direct inhibition of CYP2D6
CYP2C8 [15] = test: in vitro; type: in vitro ADME; settings: human
[16] = Microsomal protein binding by equilibrium dialysis; settings: 5 h at 37 °C in HLM
CYP1A2 [17] = test: in vitro; type: in vitro ADME; settings: human
CYP3A4 [18] = test: CYP3A4 induction in cryopreserved human hepatocytes; type: in vitro ADME; settings: mean of three donors
Study 3 = settings: human, in vivo, 25 mg
CYP3A4 [19] = test: Study 3
CYP2C19 [20] = target: T2, CYP2C19; test: biochemical
CYP2B6 [21] = target: T5, CYP2B6; test: biochemical
UGT2B7 = UGT2B7 (Homo sapiens, UniProt P16662); test: Inhibition of UGT2B7 in human liver microsomes
UGT2B7, sequence (P16662 24-529): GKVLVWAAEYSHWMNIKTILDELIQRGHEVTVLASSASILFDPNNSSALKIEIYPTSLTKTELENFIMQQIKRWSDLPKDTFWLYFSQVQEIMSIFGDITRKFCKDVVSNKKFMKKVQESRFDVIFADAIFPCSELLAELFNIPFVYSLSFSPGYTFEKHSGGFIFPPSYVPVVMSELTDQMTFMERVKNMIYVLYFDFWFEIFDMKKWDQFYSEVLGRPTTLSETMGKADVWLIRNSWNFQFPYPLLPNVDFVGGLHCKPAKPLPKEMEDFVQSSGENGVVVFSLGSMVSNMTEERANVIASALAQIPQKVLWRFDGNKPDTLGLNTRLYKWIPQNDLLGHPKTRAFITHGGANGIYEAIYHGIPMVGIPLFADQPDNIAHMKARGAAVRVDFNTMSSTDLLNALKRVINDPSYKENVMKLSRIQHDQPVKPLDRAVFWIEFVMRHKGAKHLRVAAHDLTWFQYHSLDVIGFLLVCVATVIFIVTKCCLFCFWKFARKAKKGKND

CYP2C9 [22] = test: in vitro; type: in vitro ADME; settings: human
[23] = midazolam 2 mg + esmethadone 25 mg, mean ± SD
[24] = midazolam 2 mg alone, mean ± SD
[25] = midazolam + esmethadone vs midazolam alone
[26] = mRNA levels EC50, donor 1, 72 h
[27] = mRNA levels EC50, donor 2, 72 h
[28] = mRNA levels EC50, donor 3, 72 h
[29] = IC50,u (IC50 unbound), HLM, corrected for fraction unbound

T1 sequence (P10635 whole entry): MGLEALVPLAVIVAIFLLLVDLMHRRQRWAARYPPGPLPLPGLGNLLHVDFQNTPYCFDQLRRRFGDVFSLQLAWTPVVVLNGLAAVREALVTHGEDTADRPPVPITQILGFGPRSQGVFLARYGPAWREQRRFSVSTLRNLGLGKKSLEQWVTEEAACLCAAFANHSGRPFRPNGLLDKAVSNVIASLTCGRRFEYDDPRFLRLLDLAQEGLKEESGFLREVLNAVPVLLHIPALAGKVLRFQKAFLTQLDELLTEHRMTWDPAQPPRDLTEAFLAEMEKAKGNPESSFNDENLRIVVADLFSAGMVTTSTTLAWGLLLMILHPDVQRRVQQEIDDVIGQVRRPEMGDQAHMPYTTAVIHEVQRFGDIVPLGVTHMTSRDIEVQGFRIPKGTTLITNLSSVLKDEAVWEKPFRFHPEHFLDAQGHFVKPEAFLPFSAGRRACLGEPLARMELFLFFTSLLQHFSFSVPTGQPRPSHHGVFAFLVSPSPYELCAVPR

COc1ccc2c(c1)[C@]13CCCC[C@@H]1[C@H](C2)N(C)CC3 [dextromethorphan]
CL/F (CYP2D6 [1]; dextromethorphan 30 mg + esmethadone 75 mg): 907 ± 715 L/h
CL/F (CYP2D6 [1]; dextromethorphan 30 mg alone): 4560 ± 3280 L/h
Increase of exposure (AUC) by esmethadone (CYP2D6 [1]): 2.71 fold
AUC(0-inf) (CYP2D6 [1]; human, plasma, oral, 30 mg): 31.2 ng·h/mL
AUC(0-t) (CYP2D6 [1]; human, plasma, oral, 30 mg): 26.6 ng·h/mL
Tmax (CYP2D6 [1]; human, plasma, oral, 30 mg): 2.5 h
Vd/F (CYP2D6 [1]; human, plasma, oral, 30 mg): 39000 L
half-life (CYP2D6 [1]; human, plasma, oral, 30 mg): 429 ± 197 min
Cmax (CYP2D6 [1]; human, plasma, 30 mg): 2.2 ± 3.8 ng/mL

Cc1ncc2n1-c1ccc(Cl)cc1C(c1ccccc1F)=NC2 [midazolam, reference compound]
AUC(0-inf) (CYP3A4 [2]; human, in vivo, 2 mg): 26.8 ng·h/mL
AUC(0-t) (CYP3A4 [2]; human, in vivo, 2 mg): 25.5 ng·h/mL
Tmax (CYP3A4 [2]; human, in vivo, 2 mg): 30 min
Vd/F (CYP3A4 [2]; human, in vivo, 2 mg): 571 ± 182 L
half-life (CYP3A4 [2]; human, in vivo, 2 mg): 307 ± 115 min
Cmax (CYP3A4 [2]; human, in vivo, po, 2 mg): 11.5 ng/mL
CL/F (CYP3A4 [2]; [23]): 84.5 ± 27.5 L/h
CL/F (CYP3A4 [2]; [24]): 83.8 ± 27.9 L/h

OCc1ncc2n1-c1ccc(Cl)cc1C(c1ccccc1F)=NC2 [1′-hydroxymidazolam]
Cmax (CYP3A4 [2]; midazolam 2 mg + esmethadone 25 mg (day 19, after repeated dosing), mean ± SD): 13,100 ± 4930 pg/mL
AUC0–inf (CYP3A4 [2]; [23]): 42,700 ± 15100 h*pg/mL
AUC0–t (CYP3A4 [2]; [23]): 41,100 ± 14,500 h*pg/mL
Tmax (CYP3A4 [2]; midazolam 2 mg + esmethadone 25 mg, median (range)): 0.925 (0.500–2.00)* h
AUC0–inf (CYP3A4 [2]; [24]): 11,600 ± 8260 h*pg/mL
AUC0–t (CYP3A4 [2]; [24]): 10,700 ± 7360 h*pg/mL
Tmax (CYP3A4 [2]; midazolam 2 mg alone, median (range)): 0.500 (0.500–0.750) h
Cmax (CYP3A4 [2]; midazolam 2 mg oral alone (day 1), plasma, mean ± SD): 5.44 ± 3.52 ng/mL
Increase of AUC by esmethadone (CYP3A4 [2]; [25]): 3.84 fold and 3.8 fold
Increase of Cmax by esmethadone (CYP3A4 [2]; [25]): 2.4 fold

oxy-esmethadone glucuronide
Percent of the total plasma radioactivity exposure through 24 h post-dose (Study 1): 0.473%

CN1CC[C@@]23CCCC[C@@H]2[C@@H]1Cc1ccc(O)cc13 [dextrorphan]
Increase of exposure (AUC) by esmethadone (CYP2D6 [1]): 3.11 fold
AUC(0-inf) (CYP2D6 [1]; human, plasma, oral, 30 mg): 27.2 ng·h/mL
AUC(0-t) (CYP2D6 [1]; human, plasma, oral, 30 mg): 26.3 ng·h/mL
half-life (CYP2D6 [1]; human, plasma, oral, 30 mg): 338 ± 298 min
Cmax (CYP2D6 [1]; human, plasma, 30 mg): 4.9 ± 2.62 ng/mL

CCC(=O)C(CC(C)N(C)C)(c1ccccc1)c1ccccc1 (centres unmarked) [methadone]
Higher concentration associated with a single nucleotide polymorphism of P-gp [3]: 32.9%
Oral bioavailability, inter-subject range [3]: 36–100%
Oral bioavailability ([3]; similar for the two enantiomers): 70–80%

CCC(=O)C(C[C@H](C)N(C)C)(c1ccccc1)c1ccccc1 [esmethadone]
IC50 (UGT1A9): > 200 µM
Conclusion (inhibitory activity) (UGT1A9; HLM): Yes
Effect of esmethadone on CYP3A4 activity (CYP3A4 [2]; clinical, esmethadone 25 mg once daily): negligible effect
IC50 (P-glycoprotein (P-gp)): 9.28 µM
Conclusion (inhibitory activity) (CYP2C19 [4]): Yes
IC50 (UGT1A4): > 200 µM
Conclusion (inhibitory activity) (UGT1A4; HLM): Yes
IC50 (CYP2C9 [5]): > 200 µM
Cmax,u, maximal unbound concentration in plasma at steady state [3]: 0.587 µM
IC50 (UGT1A1): > 200 µM
Conclusion (inhibitory activity) (UGT1A1; HLM): Yes
Conclusion (inhibitory activity) (UGT1A6): No
Fecal excretion of the component (Study 1): no fecal excretion
Percent of the total plasma radioactivity exposure through 24 h post-dose (Study 1): 70.4%
Radioactivity excreted in urine (Study 1): 53.9 % of the dose
Mean exposure (AUC0.5–24) in plasma (Study 1; healthy male subjects): 1200 ng eq. h/g
Urinary excretion of the component (Study 1; mean across subjects): 13 % of the dose
Conclusion (inhibitory activity) (CYP1A2 [6]): No
IC50 (UGT1A3): > 200 µM
Conclusion (inhibitory activity) (UGT1A3; HLM): Yes
Tolerability [7]: well tolerated
IC50 (OCT1): 1670 nM
IC50 [8]: 139 µM
Conclusion (inhibitory activity) ([8]; Supersomes): Yes
EC50 at 72 h (CYP2B6 [9]; [26]): 4.3 µM
EC50 at 72 h (CYP2B6 [9]; [27]): 5.36 µM
EC50 at 72 h (CYP2B6 [9]; [28]): 4.12 µM
IC50 (CYP2A6): > 200 µM
Conclusion (inhibitory activity) (CYP2A6; HLM, esmethadone 0.2–200 μM): Yes
IC50 (CYP2C8 [10]): > 200 µM
Conclusion (inhibitory activity) (CYP2C8 [11]): Yes
Conclusion (inhibitory activity) (CYP2B6 [12]): Yes
Conclusion (inhibitory activity) (CYP2C9 [13]): Yes
Type of inhibition (CYP2D6 [14]; HLM): mixed (competitive and non-competitive) inhibition
Conclusion (inhibitory activity) (CYP2D6 [14]; HLM, esmethadone 0.2–200 μM): Yes
IC50 (CYP2D6 [14]; IC50, HLM, dextromethorphan O-demethylase): 9.6 µM and 9.63 µM
IC50 (CYP2D6 [14]; [29]): 8.28 µM
Ki (CYP2D6 [14]; Ki, HLM, five substrate concentrations 2–50 μM): 2020 nM
Ki (CYP2D6 [14]; Ki,u (unbound Ki), HLM, corrected for fraction unbound): 1740 nM
EC50 at 72 h (CYP2C8 [15]; [26]): 2.85 µM
EC50 at 72 h (CYP2C8 [15]; [28]): 5.27 µM
Stability under equilibrium dialysis testing conditions [16]: stable
EC50 at 72 h (CYP1A2 [17]; [26]): 25.7 µM
EC50 at 72 h (CYP1A2 [17]; [27]): 3.75 µM
EC50 at 72 h (CYP1A2 [17]; [28]): 26.3 µM
Increase of CYP3A4 enzyme activity (CYP3A4 [18]): 5.2 ± 4.8 fold
Increase of CYP3A4 mRNA (CYP3A4 [18]): 21.4 ± 1.1 fold
CYP2D6 inhibitor category (FDA guidelines) (CYP2D6 [1]; clinical, esmethadone 75 mg loading dose): moderate inhibitor of CYP2D6
Tmax (Study 3): 3 h
Maximum observed concentration (text, concentration–time profiles) (CYP3A4 [19]; esmethadone 25 mg co-administered with cobicistat): 130 ± 22.5 ng/mL
Increase of total exposure (AUC0–inf) by cobicistat (CYP3A4 [19]; esmethadone + cobicistat vs alone): 32%
AUC(0-inf) (CYP3A4 [19]; human, in vivo, 25 mg): 4430 ± 1370 ng·h/mL
AUC(0-t) (CYP3A4 [19]; human, in vivo, 25 mg): 4100 ± 1210 ng·h/mL
Cmax (CYP3A4 [19]; human, in vivo, po, 25 mg): 131 ± 31.5 ng/mL
IC50 (CYP2C19 [20]; IC50, HLM): 174 µM
IC50 (CYP2C19 [20]; [29]): 150 µM
IC50 (CYP2B6 [21]): > 200 µM
IC50 (UGT2B7): > 200 µM
Conclusion (inhibitory activity) (UGT2B7; HLM): Yes
EC50 at 72 h (CYP2C9 [22]; [26]): 1.05 µM
EC50 at 72 h (CYP2C9 [22]; [28]): 18.1 µM

CCC(=O)C(C[C@@H](C)N(C)C)(c1ccccc1)c1ccccc1 [levomethadone]
Time to maximum observed concentration (Tmax) ([3]; oral methadone): 3 h

From paper PMC11035515 (Drugs in R&D, 2023)
